Experimental data published in patent US9023821B2, “Use of MicroRNA for treating diseases associated with a dysfunction of the cilia in multiciliated epithelial cells” (Centre National de la Recherche Scientifique, priority 2009, dated 2015).

Key:
[1] = test system: human airway epithelial cells (HAECs); assay: High-throughput sequencing (HTS) of miRNAs at four stages of differentiation of HAECs; conditions: for Modulation (ratio of the level of intensity of expression in log2 in two stages of differentiation) measured by high-throughput sequencing, D7 − D0 / Modulation (ratio of the level of intensity of expression in log2 in two stages of differentiation) measured by high-throughput sequencing, FC − D7 / Modulation (ratio of the level of intensity of expression in log2 in two stages of differentiation) measured by high-throughput sequencing, WD − D0 / Modulation (ratio of the level of intensity of expression in log2 in two stages of differentiation) measured by high-throughput sequencing, WD − FC / Level of intensity of expression in log2 measured by high-throughput sequencing, D0 / Level of intensity of expression in log2 measured by high-throughput sequencing, D7 / Level of intensity of expression in log2 measured by high-throughput sequencing, FC / Level of intensity of expression in log2 measured by high-throughput sequencing, WD: Table VI; for Level of intensity of expression in log2 At the differentiated stage (WD) measured in HTS: healthy human airway epithelial tissue; for Level of intensity of expression in log2 measured by high-throughput sequencing, D0: stage D0; for Level of intensity of expression in log2 measured by high-throughput sequencing, D7: stage D7; for Level of intensity of expression in log2 measured by high-throughput sequencing, FC: stage FC; for Level of intensity of expression in log2 At the differentiated stage (WD) measured in HTS / Level of intensity of expression in log2 measured by high-throughput sequencing, WD: stage WD
Procedure, shortened: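 Total RNA (with small RNAs) from air-liquid-interface HAECs at ALI-D0, D7, first cilia (~14 d) and fully differentiated (~21 d); adaptor-ligated SOLiD small-RNA libraries, RT-PCR, gel-selected ~105-150 bases. Counts normalized to 10^6 sequences as % abundance; linear-model/empirical Bayes; kept >1% abundance, |Log2 Ratio| <0.5, adjusted P <0.05.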

[2] = test system: human airway epithelial cells (HAECs); assay: Agilent miRNA chips, miRNA expression at four stages of differentiation of HAECs; conditions: for Modulation (ratio of the level of intensity of expression in log2 in two stages of differentiation) measured with the Agilent chips, D7 − D0 / Modulation (ratio of the level of intensity of expression in log2 in two stages of differentiation) measured with the Agilent chips, FC − D7 / Modulation (ratio of the level of intensity of expression in log2 in two stages of differentiation) measured with the Agilent chips, WD − D0 / Modulation (ratio of the level of intensity of expression in log2 in two stages of differentiation) measured with the Agilent chips, WD − FC / Level of intensity of expression in log2 measured with the Agilent chips, D0 / Level of intensity of expression in log2 measured with the Agilent chips, D7 / Level of intensity of expression in log2 measured with the Agilent chips, FC / Level of intensity of expression in log2 measured with the Agilent chips, WD: Table VI; for Modulation (ratio of the level of intensity of expression in log2 at two stages of differentiation), FC − D7 / Modulation (ratio of the level of intensity of expression in log2 at two stages of differentiation), WD − FC: Agilent miRNA chips, Table V; for Level of intensity of expression in log2 measured with the Agilent chips, D0: stage D0; for Level of intensity of expression in log2 measured with the Agilent chips, D7: stage D7; for Level of intensity of expression in log2 measured with the Agilent chips, FC: stage FC; for Level of intensity of expression in log2 measured with the Agilent chips, WD: stage WD
Procedure, shortened: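 Arrays probing 866 human and 89 human viral miRNAs were used in parallel with sequencing. The same patients' RNA was labelled and hybridized following the manufacturer's protocol.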

[3] = test system: basal cells and pyramidal cells of the airway epithelium; assay: miRNA expression in sorted basal cells versus pyramidal cells (ciliated + secretory), HTS and Agilent chips; parameters: species or system human; conditions: for Modulation of expression of the miRNAs in pyramidal cells (323(−)) relative to basal cells 323(+): HTS and Agilent chips; for Intensity of the level of expression in log2 in pyramidal cells (323(−)): pyramidal cells (ciliated + secretory)
Procedure, shortened: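 Nasal polyp or concha epithelial cells from 3 donors FACS-sorted into CD151+/tissue factor+ basal cells and CD151−/TF− pyramidal (ciliated plus mucus-secreting) cells, excluding dead (DAPI) cells and doublets. miRNA profiles from total RNA obtained by Agilent chips or high-throughput sequencing.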

Substance | Modulation (ratio of the level of intensity of expression in log2 in two stages of differentiation) measured by high-throughput sequencing, D7 − D0 [1] | Modulation (ratio of the level of intensity of expression in log2 in two stages of differentiation) measured by high-throughput sequencing, FC − D7 [1] | Modulation (ratio of the level of intensity of expression in log2 in two stages of differentiation) measured by high-throughput sequencing, WD − D0 [1] | Modulation (ratio of the level of intensity of expression in log2 in two stages of differentiation) measured by high-throughput sequencing, WD − FC [1] | Level of intensity of expression in log2 At the differentiated stage (WD) measured in HTS [1] | Level of intensity of expression in log2 measured by high-throughput sequencing, D0 [1] | Level of intensity of expression in log2 measured by high-throughput sequencing, D7 [1] | Level of intensity of expression in log2 measured by high-throughput sequencing, FC [1] | Level of intensity of expression in log2 measured by high-throughput sequencing, WD [1] | Modulation (ratio of the level of intensity of expression in log2 in two stages of differentiation) measured with the Agilent chips, D7 − D0 [2] | Modulation (ratio of the level of intensity of expression in log2 at two stages of differentiation), FC − D7 [2] | Modulation (ratio of the level of intensity of expression in log2 in two stages of differentiation) measured with the Agilent chips, FC − D7 [2] | Modulation (ratio of the level of intensity of expression in log2 in two stages of differentiation) measured with the Agilent chips, WD − D0 [2] | Modulation (ratio of the level of intensity of expression in log2 at two stages of differentiation), WD − FC [2] | Modulation (ratio of the level of intensity of expression in log2 in two stages of differentiation) measured with the Agilent chips, WD − FC [2] | Level of intensity of expression in log2 measured with the Agilent chips, D0 [2] | Level of intensity of expression in log2 measured with the Agilent chips, D7 [2] | Level of intensity of expression in log2 measured with the Agilent chips, FC [2] | Level of intensity of expression in log2 measured with the Agilent chips, WD [2] | Modulation of expression of the miRNAs in pyramidal cells (323(−)) relative to basal cells 323(+) [3] | further results
hsa-miR-23b: human miRNA, SEQ ID No. 26 (AUCACAUUGCCAGGGAUUACC; expressed or natural sequence; listed as Homo sapiens) | 1.30 log2 | −0.17 log2 | 1.29 log2 | 0.16 log2 | 9.35 log2 | 14.06 log2 | 15.35 log2 | 15.18 log2 | 15.35 log2 | 1.96 log2 | −0.27 log2 | −0.27 log2 | 1.72 log2 | 0.04 log2 | 0.04 log2 | 8.92 log2 | 10.88 log2 | 10.61 log2 | 10.64 log2 | −2.23 | Modulation (ratio of the level of intensity of expression in log2 in two stages of differentiation), D7 − D0 ([1]; HTS): 1.30 log2; Modulation (ratio of the level of intensity of expression in log2 in two stages of differentiation), FC − D7 ([1]; HTS): −0.17 log2; Modulation (ratio of the level of intensity of expression in log2 in two stages of differentiation), WD − FC ([1]; HTS): 0.16 log2; Abundance (%), D0 ([1]; HTS, ALI-D0): 3.73%; Abundance (%), D7 ([1]; HTS, ALI-D7): 9.19%; Abundance (%), FC ([1]; HTS, ALI-FC): 7.92%; Abundance (%), WD ([1]; HTS, ALI-WD): 6.72%; Intensity of the level of expression in log2 in basal cells (323(+)) [3]: 9.41 log2; Intensity of the level of expression in log2 in pyramidal cells (323(−)) [3]: 7.18 log2
hsa-miR-25: human miRNA, SEQ ID No. 27 (CAUUGCACUUGUCUCGGUCUGA; expressed or natural sequence; listed as Homo sapiens) | 0.66 log2 | −0.03 log2 | 0.24 log2 | −0.39 log2 | 3.52 log2 | 9.11 log2 | 9.77 log2 | 9.74 log2 | 9.35 log2 | 1.35 log2 | −0.65 log2 | −0.65 log2 | 0.66 log2 | −0.05 log2 | −0.05 log2 | 7.15 log2 | 8.50 log2 | 7.85 log2 | 7.80 log2 | −0.70 | Intensity of the level of expression in log2 in basal cells (323(+)) [3]: 5.40 log2; Intensity of the level of expression in log2 in pyramidal cells (323(−)) [3]: 4.70 log2
hsa-miR-26a: human miRNA, SEQ ID No. 28 (UUCAAGUAAUCCAGGAUAGGCU; expressed or natural sequence; listed as Homo sapiens) | 1.31 log2 | −0.98 log2 | 3.22 log2 | 2.90 log2 | 7.75 log2 | 0.30 log2 | 1.61 log2 | 0.62 log2 | 3.52 log2 | 2.20 log2 | −0.11 log2 | −0.11 log2 | 2.15 log2 | 0.06 log2 | 0.06 log2 | 8.50 log2 | 10.70 log2 | 10.59 log2 | 10.65 log2 | −2.24 | Intensity of the level of expression in log2 in basal cells (323(+)) [3]: 9.92 log2; Intensity of the level of expression in log2 in pyramidal cells (323(−)) [3]: 7.68 log2
hsa-miR-26b: human miRNA, SEQ ID No. 29 (UUCAAGUAAUUCAGGAUAGGU; expressed or natural sequence; listed as Homo sapiens) | 0.09 log2 | 0.05 log2 | 0.92 log2 | 0.78 log2 | 6.81 log2 | 6.84 log2 | 6.93 log2 | 6.97 log2 | 7.75 log2 | 1.94 log2 | −0.37 log2 | −0.37 log2 | 1.65 log2 | 0.08 log2 | 0.08 log2 | 7.97 log2 | 9.91 log2 | 9.54 log2 | 9.62 log2 | −1.47 | Intensity of the level of expression in log2 in basal cells (323(+)) [3]: 8.75 log2; Intensity of the level of expression in log2 in pyramidal cells (323(−)) [3]: 7.28 log2
